Measured values published in paper PMC12142043, “Cell-based high-content approach for SARS-CoV-2 neutralization identifies unique monoclonal antibodies and PI3K pathway inhibitors” (Frontiers in Cell and Developmental Biology, 2025).
Counter-ions that a name gives are not always drawn. Like-named read-outs stand apart in the source and are kept apart here.

Tested on: SARS-CoV-2 (USA-WA1/2020) in Calu-3 cells
Type: cell-based
[1] = high dose (10 µM), Calu-3, 48 h
[2] = low dose (100 nM), Calu-3, 48 h

Structure (SMILES) | dsRNA signal, AU High [1] [AU] | dsRNA signal, AU Low [2] [AU] | Reduction of infection in representative images (Figure 4A) | dsRNA signal, AU High | dsRNA signal, AU Low
Cn1cc(-c2ccc3nnc(C(F)(F)c4ccc5ncccc5c4)n3n2)cn1 [JNJ-38877605] | 9345.0 | 32468.4 |  |  | 
CN(C)C/C=C/C(=O)Nc1cccc(C(=O)Nc2ccc(Nc3nccc(-c4cccnc4)n3)cc2)c1 [JNK-IN-7] | 66910.1 | 45982.8 |  |  | 
COc1cc(-c2cc(-c3cccc(O)c3)cnc2N)cc(OC)c1OC [K02288] | 4456.5 | 7061.1 |  |  | 
COc1ccc(S(=O)(=O)Nc2ccccc2CN(C)C/C=C/c2ccc(Cl)cc2)cc1.Cl [KN-92 hydrochloride] | 0.0 | 14359.5 |  |  | 
COc1ccc(S(=O)(=O)Nc2ccccc2CN(C)C/C=C/c2ccc(Cl)cc2)cc1.O=P(O)(O)O [KN-92 phosphate] | 4429.3 | 16946.8 |  |  | 
COc1ccc(S(=O)(=O)N(CCO)c2ccccc2CN(C)C/C=C/c2ccc(Cl)cc2)cc1.O=P(O)(O)O [KN-93 Phosphate] | 4943.4 | 2840.4 |  |  | 
Nc1ccc(/C=C/C(=O)NCc2cc3cc(-c4ccc(C(=O)N5CCC(F)(F)CC5)cc4)cc(-c4ccc(F)cc4)c3o2)cn1 [KPT-9274] | 6803.0 | 25813.6 |  |  | 
CCCNC(=O)Nc1ccc(Oc2ncnc3cc(OC)c(OC)cc23)cc1Cl [KRN 633] | 55097.1 | 35164.2 |  |  | 
O=c1cc(-c2cccc3c2Sc2ccccc2S3)oc(N2CCOCC2)c1 [KU 55933] | 33867.0 | 52307.6 |  |  | 
C[C@@H]1CN(CC(=O)Nc2ccc3c(c2)Cc2cccc(-c4cc(=O)cc(N5CCOCC5)o4)c2S3)C[C@H](C)O1 [KU-60019] | 31471.9 | 10671.9 |  |  | 
COc1cc2nccc(Oc3ccc(NC(=O)Nc4ccc(F)cc4F)c(F)c3)c2cc1OC [Ki8751] | 16810.1 | 45822.4 |  |  | 
COc1cc(Oc2ccnc3cc(OC)c(OC)cc23)ccc1NC(=O)NC(C)c1nccs1 (stereo not shown) [Ki20227] | 0.0 | 13064.0 |  |  | 
CC(C)C[C@H](N)C(=O)O [L-Leucine] | 3716.4 | 18120.1 |  |  | 
COc1ccccc1-c1cc(Nc2cccc(CS(N)(=O)=O)c2)ncn1 [LDC000067] | 31035.0 | 20712.1 |  |  | 
Cl.c1ccc2c(-c3cnn4cc(-c5ccc(N6CCNCC6)cc5)cnc34)ccnc2c1 [LDN193189 Hydrochloride] | 42525.8 | 24650.0 |  |  | 
c1ccc2c(-c3cnn4cc(-c5ccc(N6CCNCC6)cc5)cnc34)ccnc2c1 [LDN-193189] | 30043.0 | 7399.9 |  |  | 
COc1cc(-c2cc(-c3ccc(N4CCNCC4)cc3)cnc2C)cc(OC)c1OC [LDN-214117] | 4693.4 | 28899.6 |  |  | 
C/C(O)=C(\C#N)C(=O)Nc1cc(Br)ccc1Br [LFM-A13] | 60025.3 | 42758.8 |  |  | 
c1ccc(-c2[nH]ncc2-c2ccnc3ccccc23)nc1 [LY364947] | 12638.5 | 3456.2 |  |  | 
O=C1NC(=O)C(c2cnc3ccccn23)=C1c1cn2c3c(cc(F)cc13)CN(C(=O)N1CCCCC1)CC2 [LY2090314] | 16169.3 | 7523.7 |  |  | 

Structure (SMILES) | dsRNA signal, AU High [1] [AU] | dsRNA signal, AU Low [2] [AU] | Reduction of infection in representative images (Figure 4A) | dsRNA signal, AU High | dsRNA signal, AU Low
c1ccc(-c2nn3c(c2-c2ccnc4cc(OCCN5CCOCC5)ccc24)CCC3)nc1 [LY2109761] | 9694.6 | 5823.5 |  |  | 
Cc1cccc(-c2nn3c(c2-c2ccnc4ccc(C(N)=O)cc24)CCC3)n1 [LY2157299] | 33079.0 | 15107.1 |  |  | 
CC(C)(C)Cn1c(N)nc2ccc(-c3[nH]c(C(C)(C)C)nc3-c3ccc(F)cc3)nc21 [LY2228820] | 88.7 | 5927.3 |  |  | 
Cn1cc(-c2ccc(F)c(C(F)(F)F)c2)nc1C1CCN(c2ncnc3[nH]ncc23)CC1 [LY2584702] | 5638.3 | 15579.4 |  |  | 
Cc1cnc(NC(=O)Nc2cc(Br)c(C)cc2OC[C@@H]2CNCCO2)cn1 [LY2603618] | 13995.2 | 6197.3 |  |  | 
CCN1CCN(Cc2ccc(Nc3ncc(F)c(-c4cc(F)c5nc(C)n(C(C)C)c5c4)n3)nc2)CC1 [LY2835219 free base] | 59180.8 | 26611.9 |  |  | 
C[C@@H](Oc1ccc2[nH]nc(/C=C/c3cnn(CCO)c3)c2c1)c1c(Cl)cncc1Cl [LY2874455] | 11432.5 | 3320.6 |  |  | 
Cn1nccc1Nc1nccc(-c2cc3c(s2)C(C)(C)N(CCN2CCOCC2)C3=O)n1 [LY3214996] | 4594.5 | 22927.9 |  |  | 
O=c1cc(N2CCOCC2)oc2c(-c3ccccc3)cccc12 [LY 294002] | 11164.3 | 43579.3 |  |  | 
COc1cc2nccc(Oc3ccc(NC(=O)NC4CC4)c(Cl)c3)c2cc1C(N)=O [Lenvatinib (E7080)] | 26964.0 | 55504.0 |  |  | 
CCN(CC)CC(=O)Nc1c(C)cccc1C [Lidocaine] | 26152.6 | 999.3 |  |  | 
C[C@@H]1O[C@@H](OC[C@H]2O[C@@H](Oc3cc(O)c4c(=O)cc(-c5ccc(O)cc5)oc4c3)[C@H](O[C@@H]3O[C@@H](C)[C@H](O)[C@@H](O)[C@H]3O)[C@@H](O)[C@@H]2O)[C@H](O)[C@H](O)[C@H]1O [Ligustroflavone] | 4049.2 | 6040.1 |  |  | 
Cc1c(F)cc(C(=O)NC2CC2)cc1-c1ccc(C(=O)NCC(C)(C)C)cn1 [Losmapimod, reference compound] |  |  | poor activity |  | 
Cn1cnc2c(F)c(Nc3ccc(Br)cc3F)c(C(=O)NOCCO)cc21 [MEK162 (ARRY-162, ARRY-438162)] | 32104.0 | 54835.5 |  |  | 
COCCNCc1ccc(-c2cc3nccc(Oc4ccc(NC(=S)NC(=O)Cc5ccc(F)cc5)cc4F)c3s2)nc1 [MGCD-265] | 4249.4 | 42710.5 |  |  | 
O=[N+]([O-])c1ccc(Nc2nc(N3CCOCC3)nc(N3CCOCC3)n2)cc1 [MHY1485] | 4962.4 | 35655.5 |  |  | 
CN(C[C@@H]1COCCO1)S(=O)(=O)Nc1ccc2ccc3ncc(-c4cnn(C)c4)cc3c(=O)c2c1 [MK-2461] | 19211.6 | 2226.3 |  |  | 
O=C(O)[C@]1(Cc2cccc(Nc3nccs3)n2)CC[C@@H](Oc2cccc(Cl)c2F)CC1 [MK-5108 (VX-689)] | 3258.6 | 34308.8 |  |  | 
COc1ccc(-c2cnc3c(-c4cccc5ncccc45)cnn3c2)cc1 [ML347] | 0.0 | 58224.3 |  |  | 
Cl.O=S(=O)(c1cccc2c(I)cccc12)N1CCCNCC1 [ML-7 hydrochloride] | 19324.6 | 18346.9 |  |  | 

Structure (SMILES) | dsRNA signal, AU High [1] [AU] | dsRNA signal, AU Low [2] [AU] | Reduction of infection in representative images (Figure 4A) | dsRNA signal, AU High | dsRNA signal, AU Low
COc1c(Cl)cc2c([nH]c3cnccc32)c1NC(=O)c1cccnc1C [MLN120B] | 3021.2 | 0.0 |  |  | 
O=C(O)c1ccc(Nc2ncc3c(n2)-c2ccc(Cl)cc2C(c2c(F)cccc2F)=NC3)cc1 [MLN8054] | 4632.4 | 9929.7 |  |  | 
COc1cc(Nc2ncc3c(n2)-c2ccc(Cl)cc2C(c2c(F)cccc2OC)=NC3)ccc1C(=O)O [MLN8237 (Alisertib)] | 9976.5 | 32491.8 |  |  | 
O=[N+]([O-])/C=C/c1ccc2c(c1)OCO2 [MNS] | 1958.5 | 51870.8 |  |  | 
CCc1ccc(C(=O)COc2ccc(CC3SC(=O)NC3=O)cc2)nc1 (stereo not shown) [MSDC-0160] | 16528.8 | 15455.5 |  |  | 
Nc1ccc(O)c(C(=O)O)c1 [Mesalamine] | 17187.6 | 2129.6 |  |  | 
CN(C)C(=N)N=C(N)N [Metformin HCl] | 10385.6 | 10840.1 |  |  | 
Cc1cc(=O)[nH]c(=S)[nH]1 [Methylthiouracil] | 61524.3 | 55636.1 |  |  | 
CCCCCCCCCCCCCCCCOP(=O)([O-])OCC[N+](C)(C)C [Miltefosine] | 27276.6 | 36330.6 |  |  | 
O=C1c2c(O)ccc(O)c2C(=O)c2c(NCCNCCO)ccc(NCCNCCO)c21 [Mitoxantrone HCl] | 48235.0 | 23848.1 |  |  | 
COC(=O)c1c2c(c3ccccc3c1O)OC(C)(C)C=C2 [Mollugin] | 394.8 | 5157.1 |  |  | 
COc1cc(N2CCC(O)CC2)ccc1Nc1cc(Nc2ccccc2S(=O)(=O)C(C)C)c2cc[nH]c2n1 [Mps1-IN-1] | 7290.6 | 34349.9 |  |  | 
FC(F)(F)c1ccc(/C=C/c2nc(COc3ccc(CCCCn4ccnn4)cc3)co2)cc1 [Mubritinib (TAK 165)] |  |  |  | 19342.6 | 48533.2
CC(=O)NCCc1c[nH]c2ccc(O)cc12 [N-Acetylserotonin] | 219.3 | 53222.8 |  |  | 
O=[N+]([O-])c1ccc(Sc2cccc[n+]2[O-])c2nonc12 [NSC228155] | 18547.9 | 54998.4 |  |  | 
CCN(CC)CCCC(C)Nc1nc(C)cc(Nc2ccc3nc(C)cc(N)c3c2)n1 (stereo not shown) [NSC 23766] | 10192.1 | 15408.3 |  |  | 
Oc1cc(CNC(=S)/C=C/c2cc(O)c(O)c(Br)c2)cc(O)c1O [NT157] | 7372.8 | 11852.6 |  |  | 
O=C(Nc1nc2ccc(NC(=O)C34CC5CC(CC(C5)C3)C4)cc2s1)c1ccccc1 [NVP 231] | 1973.6 | 14037.2 |  |  | 
